Structures can show the parent of a compound that is named as a salt. Where two headings read alike, the source gives them in different places.
Columns and labels:
primary rat microglia [1] = experiment: Cell toxicity (dead cells, size <150 μm2) in coated fibrin (cFib) assay; conditions: for IC50: read-out: Cell Toxicity IC50 (uM) [cFib assay];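 as to Fibrin % cell toxicity: share of dead cells sized under 150 µm2 at 10 µM in fibrin-stimulated microglia HTS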
[2] = test system: fibrin-induced microglia activation; experiment: Image-based assay of fibrin-induced microglia activation (HTS and dose response); type: cell-based, rat; conditions: for inhibition at 10 µM: Rattus norvegicus, Microglia, read-out: Fibrin % inhibition
[3] = test system: fibrin- and LPS-induced microglia activation; experiment: cells; type: cell-based, rat; conditions: for Hit: HTS hit classification
primary rat microglia [4] = experiment: Cell toxicity (dead cells, size <150 μm2) in LPS assay; conditions: for IC50: read-out: Cell Toxicity IC50 (uM) [LPS assay]
[5] = test system: LPS-induced microglia activation; experiment: Image-based assay of LPS-induced microglia activation (HTS and dose response); type: cell-based, rat; conditions: for inhibition at 10 µM: Rattus norvegicus, Microglia, read-out: LPS % inhibition
[6] = primary microglia HTS, 10 μM, fibrin assay, cell size <150 μm^2 as marker of toxicity
[7] = primary microglia HTS, 10 μM, fibrin-stimulated, cell size >800 μm^2 as marker of activation
[8] = HTS of 1907 compounds, quadrant by fibrin and LPS inhibition
[9] = primary microglia HTS, 10 μM, LPS assay, cell size <150 μm^2 as marker of toxicity
[10] = primary microglia HTS, 10 μM, LPS-stimulated, cell size >800 μm^2 as marker of activation
[11] = primary microglia HTS, fibrin stimulation, toxicity = cell size <150 μm2
[12] = primary microglia HTS, fibrin stimulation, activation = cell size >800 μm2
[13] = quadrant by fibrin and LPS inhibition in HTS of 1907 compounds
[14] = primary microglia HTS, LPS stimulation, toxicity = cell size <150 μm2
[15] = 48 h, primary microglia HTS, LPS stimulation, activation = cell size >800 μm2
[16] = primary HTS, 10 μM, fibrin assay, dead cells size <150 μm2
[17] = primary HTS, 10 μM, fibrin-stimulated primary microglia
[18] = primary HTS, 10 μM, LPS assay, dead cells size <150 μm2
[19] = primary HTS, 10 μM, LPS-stimulated primary microglia
[20] = primary microglia HTS, fibrin stimulation, decreased size (<150 μm^2) as marker of toxicity
[21] = Table 1, dose response 0.001-20 μM, triplicates, primary rat microglia, 48 h, read-out: Fibrin IC50
[22] = Table 3, read-out: Fibrin IC50 (uM) (Suppl. Table 7)
[23] = dose response, fibrin-induced microglia activation, read-out: Fibrin IC50
[24] = fibrin-induced microglia activation, dose response, read-out: Fibrin IC50 (uM) (Suppl. Table 7)
[25] = primary microglia HTS, fibrin stimulation, increased cell size (>800 μm^2) as marker of activation
[26] = hit classification in microglia HTS
[27] = primary microglia HTS, LPS stimulation, decreased size (<150 μm^2) as marker of toxicity
[28] = LPS-induced microglia activation, dose response, read-out: LPS IC50 (uM) (Suppl. Table 7)
[29] = Table 1, dose response 0.001-20 μM, triplicates, primary rat microglia, 48 h, read-out: LPS IC50
[30] = Table 3, read-out: LPS IC50 (uM) (Suppl. Table 7)
[31] = dose response, LPS-induced microglia activation, read-out: LPS IC50
[32] = primary microglia HTS, LPS stimulation, increased cell size (>800 μm^2) as marker of activation
[33] = 48 h, primary microglia HTS, LPS stimulation, increased cell size (>800 μm^2) as marker of activation

C[C@H](CCC(=O)O)[C@H]1CC[C@H]2[C@@H]3[C@@H](O)C[C@@H]4C[C@H](O)CC[C@]4(C)[C@H]3CC[C@]12C [Ursodeoxycholic Acid]
Fibrin % cell toxicity (primary rat microglia [1]; [6]): 1%
Fibrin % inhibition [2, 7]: −18%
Quadrant (FIG. 5b) [3, 8]: Q4
LPS % cell toxicity (primary rat microglia [4]; [9]): 0%
LPS % inhibition [5, 10]: 1%

CC(=O)O[C@H]1C[C@@H]2CC[C@@H]3[C@H](CC[C@@]4(C)[C@H]3C[C@H]([N+]3(C)CCCCC3)[C@@H]4OC(C)=O)[C@@]2(C)C[C@@H]1N1CCCCC1 [Vecuronium]
Fibrin % cell toxicity (primary rat microglia [1]; [6]): 1%
Fibrin % inhibition [2, 7]: −24%
Quadrant (FIG. 5b) [3, 8]: Q4
LPS % cell toxicity (primary rat microglia [4]; [9]): 1%
LPS % inhibition [5, 10]: 0%

CCN1CCC[C@H]1CNC(=O)c1cc(S(N)(=O)=O)ccc1OC [Levosulpiride]
Fibrin % cell toxicity (primary rat microglia [1]; [11]): 1%
inhibition at 10 µM [2, 12]: -36%
Quadrant (FIG. 5b) [3, 13]: Q4
LPS % cell toxicity (primary rat microglia [4]; [14]): 0%
inhibition at 10 µM [5, 15]: 18%

CO/N=C(\C(=O)N[C@@H]1C(=O)N2C(C(=O)O)=C(CSc3nnnn3C)CS[C@H]12)c1csc(N)n1 [Cefmenoxime Hydrochloride]
Fibrin % cell toxicity (primary rat microglia [1]; [16]): 0%
inhibition at 10 µM [2, 17]: -15%
Quadrant (FIG. 5b) ([3]; primary HTS, 10 μM): Q4
LPS % cell toxicity (primary rat microglia [4]; [18]): 0%
inhibition at 10 µM [5, 19]: 2%

CO/N=C1\CN(c2nc3c(cc2F)c(=O)c(C(=O)O)cn3C2CC2)CC1CN (stereo not shown) [Gemifloxacin]
Fibrin % cell toxicity (primary rat microglia [1]; [11]): 0%
inhibition at 10 µM [2, 12]: -34%
Quadrant (FIG. 5b) [3, 13]: Q4
LPS % cell toxicity (primary rat microglia [4]; [14]): 0%
inhibition at 10 µM [5, 15]: 6%

CCCOc1ccc2[nH]c(NC(=O)OC)nc2c1 [Oxybendazole, reference compound]
Fibrin % cell toxicity (primary rat microglia [1]; [20]): 2%
IC50 (primary rat microglia [1]; Table 3): > 20 µM
IC50 (primary rat microglia [1]; cFib assay): > 20 µM
Fibrin Selectivity [2]: 2
Fibrin Selectivity (LOG10) [2]: 0.22
IC50 [2, 21]: 7 µM
IC50 [2, 22]: 7 µM
IC50 [2, 23]: 7 µM
IC50 [2, 24]: 7 µM
Fibrin % inhibition [2, 25]: 78%
Hit [3]: HIT (Hits were defined as molecules that exhibited greater than 50% inhibition of either fibrin or LPS activation)
Quadrant (FIG. 5b) [3, 8]: Q3
Quadrant (FIG. 5b) ([3]; Table 1, screen at 10 μM): Q3
Cherry-picked Hit (Suppl. Table 7) ([3]; Table 3): HIT (Hits were defined as molecules that exhibited greater than 50% inhibition of either fibrin or LPS activation)
Quadrant (FIG. 5b) ([3]; Table 3, screen at 10 μM): Q3
Cherry-picked Hit (Suppl. Table 7) [3, 26]: HIT (Hits were defined as molecules that exhibited greater than 50% inhibition of either fibrin or LPS activation)
Quadrant (FIG. 5b) [3, 13]: Q3
LPS % cell toxicity (primary rat microglia [4]; [27]): 1%
IC50 (primary rat microglia [4]; LPS assay): > 20 µM
IC50 (primary rat microglia [4]; Table 3): > 20 µM
IC50 [5, 28]: 12 µM
IC50 [5, 29]: 12 µM
IC50 [5, 30]: 12 µM
IC50 [5, 31]: 12 µM
LPS % inhibition [5, 32]: 15%

CCOC(=O)C1=C(C)NC(C)=C(C(=O)OC)C1c1cccc([N+](=O)[O-])c1 (stereo not shown) [Nitrendipine]
Fibrin % cell toxicity (primary rat microglia [1]; [20]): 1%
inhibition at 10 µM [2, 25]: -12%
Quadrant (FIG. 5b) [3, 13]: Q4
LPS % cell toxicity (primary rat microglia [4]; [27]): 0%
inhibition at 10 µM [5, 33]: 18%

Cc1scc2c1N(C(=O)CN1CCN(C)CC1)c1ccccc1NC2=O
Fibrin % cell toxicity (primary rat microglia [1]; [6]): 1%
Fibrin % inhibition [2, 7]: 3%
Quadrant (FIG. 5b) [3, 8]: Q4
LPS % cell toxicity (primary rat microglia [4]; [9]): 0%
LPS % inhibition [5, 10]: 14%

NC(=O)C[S+]([O-])C(c1ccccc1)c1ccccc1 (stereo not shown) [Modafinil]
Fibrin % cell toxicity (primary rat microglia [1]; [20]): 1%
inhibition at 10 µM [2, 25]: -5%
Quadrant (FIG. 5b) [3, 13]: Q4
LPS % cell toxicity (primary rat microglia [4]; [27]): 0%
inhibition at 10 µM [5, 33]: 25%

C[N+](C)(CCOc1ccccc1)Cc1ccccc1.O=C([O-])c1cc2ccccc2cc1O [Bephenium Hydroxynapthoate]
Fibrin % cell toxicity (primary rat microglia [1]; [16]): 1%
Fibrin % inhibition [2, 17]: 25%
Quadrant (FIG. 5b) ([3]; primary HTS, 10 μM): Q4
LPS % cell toxicity (primary rat microglia [4]; [18]): 0%
LPS % inhibition [5, 19]: 19%

CC(C)[N+](C)(CCC(C(N)=O)(c1ccccc1)c1ccccc1)C(C)C [Isopropamide]
Fibrin % cell toxicity (primary rat microglia [1]; [11]): 0%
inhibition at 10 µM [2, 12]: 19%
Quadrant (FIG. 5b) [3, 13]: Q4
LPS % cell toxicity (primary rat microglia [4]; [14]): 0%
inhibition at 10 µM [5, 15]: 24%

CC(c1cc2ccccc2s1)N(O)C(N)=O (stereo not shown) [Zileuton]
Fibrin % cell toxicity (primary rat microglia [1]; [6]): 0%
inhibition at 10 µM [2, 7]: -12%
Quadrant (FIG. 5b) [3, 8]: Q4
LPS % cell toxicity (primary rat microglia [4]; [9]): 0%
inhibition at 10 µM [5, 10]: 21%

Monensin [reference compound]
Fibrin % cell toxicity (primary rat microglia [1]; [20]): 3%
IC50 (primary rat microglia [1]; Table 3): > 20 µM
IC50 (primary rat microglia [1]; cFib assay): > 20 µM
IC50 (primary rat microglia [1]; cFib assay, Table 6): > 20 µM
Fibrin Selectivity [2]: 49
Fibrin Selectivity (LOG10) [2]: 1.69
fib_HS ([2]; Hill slope of fibrin dose response, Table 7): −3.80
IC50 [2, 21]: 0.004 µM
IC50 [2, 22]: 0.004 µM
IC50 ([2]; Table 6, read-out: Fibrin IC50 (uM) (Suppl. Table 7)): 0.004 µM
fib specificity ([2]; Table 7): 0.2
IC50 ([2]; Table 7, read-out: fib_IC50): 1.14 µM
IC50 [2, 23]: 0.004 µM
Fibrin Selectivity (LOG10) ([2]; fibrin vs LPS, LOG10, Table 6): 1.69
Fibrin Selectivity ([2]; fibrin vs LPS, Table 6): 49
IC50 [2, 24]: 0.004 µM
Fibrin % inhibition [2, 25]: 101%
Hit [3]: HIT (Hits were defined as molecules that exhibited greater than 50% inhibition of either fibrin or LPS activation)
Quadrant (FIG. 5b) [3, 8]: Q2
Quadrant (FIG. 5b) ([3]; Table 1, screen at 10 μM): Q2
Cherry-picked Hit (Suppl. Table 7) ([3]; Table 3): HIT (Hits were defined as molecules that exhibited greater than 50% inhibition of either fibrin or LPS activation)
Quadrant (FIG. 5b) ([3]; Table 3, screen at 10 μM): Q2
Activity ([3]; Table 7, fib = fibrin, LPS, tox = toxicity): fib/LPS
Cherry-picked Hit (Suppl. Table 7) [3, 26]: HIT (Hits were defined as molecules that exhibited greater than 50% inhibition of either fibrin or LPS activation)
Cherry-picked Hit (Suppl. Table 7) ([3]; microglia HTS, Table 6): HIT (Hits were defined as molecules that exhibited greater than 50% inhibition of either fibrin or LPS activation)
Quadrant (FIG. 5b) ([3]; microglia HTS, Table 6): Q2
Quadrant (FIG. 5b) [3, 13]: Q2
LPS % cell toxicity (primary rat microglia [4]; [27]): 6%
IC50 (primary rat microglia [4]; LPS assay): 2 µM
IC50 (primary rat microglia [4]; LPS assay, Table 6): 2 µM
IC50 (primary rat microglia [4]; Table 3): 2 µM
LPS_HS ([5]; Hill slope of LPS dose response, Table 7): −0.48
IC50 [5, 28]: 0.2 µM
IC50 [5, 29]: 0.2 µM
IC50 [5, 30]: 0.2 µM
IC50 ([5]; Table 6, read-out: LPS IC50 (uM) (Suppl. Table 7)): 0.2 µM
LPS specificity ([5]; Table 7): 5.4
IC50 ([5]; Table 7, read-out: LPS_IC50): 0.212 µM
IC50 [5, 31]: 0.2 µM
LPS % inhibition [5, 32]: 117%

O=C(O)[C@@H](S)[C@@H](S)C(=O)O [Succimer]
Fibrin % cell toxicity (primary rat microglia [1]; [6]): 0%
inhibition at 10 µM [2, 7]: -37%
Quadrant (FIG. 5b) [3, 8]: Q4
LPS % cell toxicity (primary rat microglia [4]; [9]): 0%
inhibition at 10 µM [5, 10]: -5%

Nc1nc(=O)[nH]cc1F [Flucytosine, 5-fluorocytosine]
Fibrin % cell toxicity (primary rat microglia [1]; [11]): 1%
Fibrin % inhibition [2, 12]: 13%
Quadrant (FIG. 5b) [3, 13]: Q4
LPS % cell toxicity (primary rat microglia [4]; [14]): 1%
LPS % inhibition ([5]; primary microglia HTS, LPS stimulation, activation = cell size >800 μm2): 17%

COC(=O)Nc1nc2ccc([S+]([O-])c3ccccc3)cc2[nH]1 (stereo not shown) [Oxfendazole]
Fibrin % cell toxicity (primary rat microglia [1]; [20]): 0%
inhibition at 10 µM [2, 25]: 10%
Quadrant (FIG. 5b) [3, 13]: Q4
LPS % cell toxicity (primary rat microglia [4]; [27]): 1%
inhibition at 10 µM [5, 33]: 20%

Nc1nc2c(c(=O)[nH]1)N(C=O)C(CNc1ccc(C(=O)N[C@@H](CCC(=O)O)C(=O)O)cc1)CN2 (stereo partly shown) [Leucovorin]
Fibrin % cell toxicity (primary rat microglia [1]; [11]): 1%
inhibition at 10 µM [2, 12]: -29%
Quadrant (FIG. 5b) [3, 13]: Q4
LPS % cell toxicity (primary rat microglia [4]; [14]): 0%
inhibition at 10 µM [5, 15]: 8%

O=C(O)CCCc1ccccc1 [Gamma-Phenyl-Butyric Acid]
Fibrin % cell toxicity (primary rat microglia [1]; [11]): 0%
inhibition at 10 µM [2, 12]: -36%
Quadrant (FIG. 5b) [3, 13]: Q4
LPS % cell toxicity (primary rat microglia [4]; [14]): 0%
inhibition at 10 µM [5, 15]: 9%
